As usually defined, the EC50 is the concentration at which the effect is half-maximal. Broadly, the IC50 is the concentration at which inhibition is half-maximal.

The conditions of data set [1]: cited from earlier work.
For data set [2] the following is noted: cited from earlier work. The source holds these as a separate data set.
Data set [3] has as its system Hey A8 cells. As to the kind of experiment: Cell proliferation, MTT assay. It counts as cell-based. Conditions: HEY A8, read-out: EC50, anti-proliferative. The protocol:
(§1) Cell proliferation was assessed by MTT assay.
(§2) Cell viability was measured by MTT assay and the half maximal inhibitory concentration (IC50) was calculated using GraphPad Prism. Triplicates were performed for each sample and medium alone was used as a blank.
(§3) The anti-proliferative effects of PAK1 degradation and inhibition were evaluated.
On the technique in general: Formazan colour is commonly taken as a measure of viable cells.

Data set [4] concerns OMM1 cells. As to the kind of experiment: Cell proliferation, MTT assay. Type of data set: cell-based. Conditions: OMM-1, read-out: EC50, anti-proliferative. The protocol: as §1, §2, §3
The subject of data set [5] is MCF7 cells. As to the kind of experiment: Cell proliferation, MTT assay. Type of data set: cell-based. As to conditions: Homo sapiens, MCF7, read-out: EC50, anti-proliferative, MCF7 cells. The protocol:
as §1, §2, §3

The target of data set [6] is PAK4 (Homo sapiens, UniProt O96013). As to the kind of experiment: Z'-LYTE FRET kinase inhibition assay. Also noted: purchased Invitrogen. Type of data set: biochemical. The text has this: […]. […] […].
Chain of PAK4 (O96013 whole entry): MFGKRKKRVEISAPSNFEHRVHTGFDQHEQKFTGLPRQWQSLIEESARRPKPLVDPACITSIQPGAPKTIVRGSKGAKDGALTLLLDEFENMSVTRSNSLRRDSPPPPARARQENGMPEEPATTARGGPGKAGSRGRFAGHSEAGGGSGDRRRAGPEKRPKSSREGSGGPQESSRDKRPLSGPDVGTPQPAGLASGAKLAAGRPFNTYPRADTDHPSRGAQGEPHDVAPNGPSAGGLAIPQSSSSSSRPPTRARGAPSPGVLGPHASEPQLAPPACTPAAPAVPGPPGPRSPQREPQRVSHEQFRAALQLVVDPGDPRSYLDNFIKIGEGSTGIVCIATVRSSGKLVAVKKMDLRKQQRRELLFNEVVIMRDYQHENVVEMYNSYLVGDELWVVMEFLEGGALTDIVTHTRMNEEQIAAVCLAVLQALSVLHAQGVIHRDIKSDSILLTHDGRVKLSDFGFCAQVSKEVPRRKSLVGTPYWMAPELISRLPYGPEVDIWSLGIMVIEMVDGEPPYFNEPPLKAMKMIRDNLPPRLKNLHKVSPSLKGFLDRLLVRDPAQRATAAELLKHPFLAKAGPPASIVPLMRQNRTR
Data set [7] relates to OVCAR3 cells. As to the kind of experiment: Cell proliferation, MTT assay. Type of data set: cell-based. As to conditions: Homo sapiens, OVCAR-3, read-out: EC50, anti-proliferative, OVCAR3 cells. The protocol:
[…]. Cell proliferation was assessed by MTT assay. […].
Cells were plated at 2×10^3 cells per well in 96-well plates overnight and treated with various concentrations of Pak degraders for 72 hours. Cell viability was measured by MTT assay and the half maximal inhibitory concentration (IC50) was calculated using GraphPad Prism. Triplicates were performed for each sample and medium alone was used as a blank.
The anti-proliferative effects of PAK1 degradation and inhibition were evaluated. […]. […] […]. […] […].

Read-outs that look alike come from different tables or passages of the source.

On to `CC(C)NC(=O)N1CC[C@H](NC2=Nc3cc(F)ccc3N(CC(F)F)c3ccc(Cl)cc32)C1` [NVS-PAK1-1, reference compound], for which the “Half-life in rat liver microsomes” value in data set [1] is on record as “short half-life”. For the same molecule, in data set [2], the In vivo half-life result is reported as “short in vivo half-life”. For the same molecule, the EC50 in data set [3] was found to be 33.6 µM; in data set [4] it was 12 µM; in data set [5] (first statement of b311), 11.9 µM; in data set [5] (second listing of b311), 11.8 µM; in data set [7] (first statement of b311) it was 3.68 µM; in data set [7] (second listing of b311), 8.9 µM. Moreover, in data set [6], the IC50 is above 10 µM.

These data come from patent publication US20250312462A1, “PAK1 DEGRADERS AND METHODS OF USE THEREOF” (INSTITUTE FOR CANCER RESEARCH D/B/A THE RESEARCH INSTITUTE …, priority 2022, published 2025).
